The values below come from US20260191968A1, “PROTAC DEGRADERS OF MLLT1 AND/OR MLLT3” (DARK BLUE THERAPEUTICS LTD, priority 2024, published 2026).

Assay [1] deals with T1, MLLT1 (Homo sapiens, UniProt Q03111).
T1 construct: host or cells: MV4-11
T1 sequence (Q03111 1-559): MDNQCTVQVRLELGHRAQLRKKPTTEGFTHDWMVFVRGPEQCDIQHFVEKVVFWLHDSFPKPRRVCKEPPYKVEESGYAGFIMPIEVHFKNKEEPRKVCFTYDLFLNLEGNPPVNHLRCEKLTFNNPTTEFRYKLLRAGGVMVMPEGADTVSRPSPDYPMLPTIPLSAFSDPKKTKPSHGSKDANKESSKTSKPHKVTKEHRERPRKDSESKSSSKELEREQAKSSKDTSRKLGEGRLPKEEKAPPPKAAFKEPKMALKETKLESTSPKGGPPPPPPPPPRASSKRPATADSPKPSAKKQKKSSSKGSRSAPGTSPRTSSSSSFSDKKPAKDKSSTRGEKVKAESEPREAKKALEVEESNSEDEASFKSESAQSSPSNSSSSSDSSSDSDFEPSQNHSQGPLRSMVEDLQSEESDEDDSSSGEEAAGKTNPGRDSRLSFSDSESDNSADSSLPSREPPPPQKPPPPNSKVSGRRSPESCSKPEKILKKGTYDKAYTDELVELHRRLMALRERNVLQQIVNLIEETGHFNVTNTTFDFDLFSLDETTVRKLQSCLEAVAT
Nature of the assay: MLLT1 degradation assay in MV4-11 cells (JESS chemiluminescent detection), three concentrations, 24 h. Type of assay: cell-based. The note with it: with respect to DMSO control. In short, it runs like this:
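Read-out is % MLLT1 degradation versus DMSO, from band peak areas on a JESS chemiluminescent system. Cells (MV4-11) were exposed for 24 h at 37° C to three compound levels, 10, 100 and 1000 nM, in 0.1% DMSO.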

In assay [2] the test system is MV4-11 cells. In words: MV4-11 cellular proliferative assay, Assay Format B (CTG 2.0, 168 h). Type of assay: cell-based. The note with it: Homo sapiens, 168 h (7 days), CTG 2.0, read-out: IC50 (MV4-11 cellular proliferative assay, Assay format B). In short, it runs like this: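 Viability read by CellTiter-Glo 2.0 luminescence after 7-day (168 h) compound exposure of MV4-11 cells in IMDM/10% FBS. Ten 3-fold concentrations starting at 1 uM or 100 nM, 0.3% final DMSO; curves normalised to DMSO control, four-parameter fit.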

By IC50 is commonly meant the concentration at which inhibition is half-maximal. Turning to `CN1CCC[C@@H]1c1cc2cnc(NC(=O)c3ccc(CCCN4CCN(c5cccc6c5CN(C5CCC(=O)NC5=O)C6=O)CC4)cc3)cc2[nH]1` (stereo partly drawn) [Example 131, 4-(3-(4-(2-(2,6-dioxopiperidin-3-yl)-1-oxoisoindolin-4-yl)piperazin-1-yl)propyl)-N-(2-((R)-1-methylpyrrolidin-2-yl)-1H-pyrrolo[3,2-c]pyridin-6-yl)benzamide], in assay [1], the “MLLT1% Degradation @ 0.01 μM” value is “B (Category B: 50% ≤ B < 75% degradation)”, the “MLLT1% Degradation @ 0.1 μM” value is listed as “A (Category A: A ≥ 75% degradation)” and the “MLLT1% Degradation @ 1 μM” value is listed as “A (Category A: A ≥ 75% degradation)”. In addition, in assay [2], the IC50 was at most 0.1 µM.
In the case of `CN1CCC[C@@H]1c1cc2cnc(NC(=O)c3ccc(N4CCN(CC5CCN(c6ccc7c(c6)n(C)c(=O)n7C6CCC(=O)NC6=O)CC5)CC4)cc3)cc2[nH]1` (stereo partly drawn) [Example 170, 4-(4-((1-(1-(2,6-dioxopiperidin-3-yl)-3-methyl-2-oxo-2,3-dihydro-1H-benzo[d]imidazol-5-yl)piperidin-4-yl)methyl)piperazin-1-yl)-N-(2-((R)-1-methylpyrrolidin-2-yl)-1H-pyrrolo[3,2-c]pyridin-6-yl)benzamide], in assay [1], the “MLLT1% Degradation @ 0.01 μM” value is “A (Category A: A ≥ 75% degradation)”, the “MLLT1% Degradation @ 0.1 μM” value is reported as “A (Category A: A ≥ 75% degradation)” and the “MLLT1% Degradation @ 1 μM” value is recorded as “A (Category A: A ≥ 75% degradation)”. Also, in assay [2], the IC50 is at most 0.1 µM.
On to `CN1CCC[C@@H]1c1cc2cnc(NC(=O)c3ccc(C4CCN(CC5CCN(c6cccc7c6CN(C6CCC(=O)NC6=O)C7=O)CC5)CC4)nc3)cc2[nH]1` (stereo partly drawn) [Example 119, 6-(1-((1-(2-(2,6-dioxopiperidin-3-yl)-1-oxoisoindolin-4-yl)piperidin-4-yl)methyl)piperidin-4-yl)-N-(2-((R)-1-methylpyrrolidin-2-yl)-1H-pyrrolo[3,2-c]pyridin-6-yl)nicotinamide], for which, in assay [1], the “MLLT1% Degradation @ 0.01 μM” value is given as “B (Category B: 50% ≤ B < 75% degradation)”, the “MLLT1% Degradation @ 0.1 μM” value is reported as “A (Category A: A ≥ 75% degradation)” and the “MLLT1% Degradation @ 1 μM” value was “A (Category A: A ≥ 75% degradation)”. Further, the IC50 in assay [2] was at most 0.1 µM.
Regarding `CN1CCC[C@@H]1c1cc2cnc(NC(=O)c3ccc(OCCC4CCN(c5cccc6c5CN(C5CCC(=O)NC5=O)C6=O)CC4)cc3F)cc2[nH]1` (stereo in doubt) [Example 172, 4-(2-(1-(2-((rel-S)-2,6-dioxopiperidin-3-yl)-1-oxoisoindolin-4-yl)piperidin-4-yl)ethoxy)-2-fluoro-N-(2-((R)-1-methylpyrrolidin-2-yl)-1H-pyrrolo[3,2-c]pyridin-6-yl)benzamide], in assay [1], the “MLLT1% Degradation @ 0.01 μM” value is on record as “A (Category A: A ≥ 75% degradation)”, the “MLLT1% Degradation @ 0.1 μM” value is given as “A (Category A: A ≥ 75% degradation)” and the “MLLT1% Degradation @ 1 μM” value is given as “A (Category A: A ≥ 75% degradation)”. The IC50 in assay [2] is at most 0.1 µM.
With `CN1CCC[C@@H]1c1cc2cnc(NC(=O)c3ccc(OCCCC#Cc4cccc5c4CN(C4CCC(=O)NC4=O)C5=O)cc3F)cc2[nH]1` (stereo partly drawn) [Example 213, 4-((5-(2-(2,6-dioxopiperidin-3-yl)-1-oxoisoindolin-4-yl)pent-4-yn-1-yl)oxy)-2-fluoro-N-(2-((R)-1-methylpyrrolidin-2-yl)-1H-pyrrolo[3,2-c]pyridin-6-yl)benzamide], in assay [1], the “MLLT1% Degradation @ 0.01 μM” value is reported as “A (Category A: A ≥ 75% degradation)”, the “MLLT1% Degradation @ 0.1 μM” value is given as “A (Category A: A ≥ 75% degradation)” and the “MLLT1% Degradation @ 1 μM” value is “A (Category A: A ≥ 75% degradation)”. In addition, the IC50 in assay [2] was at most 0.1 µM.
For `CN1CCC[C@@H]1c1cc2cnc(NC(=O)c3ccc(CCCC4CCN(c5cccc6c5CN(C5CCC(=O)NC5=O)C6=O)CC4)cc3)cc2[nH]1` (stereo in doubt) [Example 77, 4-(3-(1-(2-((rel-S)-2,6-dioxopiperidin-3-yl)-1-oxoisoindolin-4-yl)piperidin-4-yl)propyl)-N-(2-((R)-1-methylpyrrolidin-2-yl)-1H-pyrrolo[3,2-c]pyridin-6-yl)benzamide], in assay [1], the “MLLT1% Degradation @ 0.01 μM” value is on record as “A (Category A: A ≥ 75% degradation)”, the “MLLT1% Degradation @ 0.1 μM” value is “A (Category A: A ≥ 75% degradation)” and the “MLLT1% Degradation @ 1 μM” value is on record as “A (Category A: A ≥ 75% degradation)”. Also, the IC50 in assay [2] is at most 0.1 µM.
In the case of `CN1CCC[C@@H]1c1cc2cnc(NC(=O)c3ccc(N4CCC(C5CCN(c6cccc7c6CN(C6CCC(=O)NC6=O)C7=O)CC5)CC4)nc3)cc2[nH]1` (stereo partly drawn) [Example 75, 6-(1′-(2-(2,6-dioxopiperidin-3-yl)-1-oxoisoindolin-4-yl)-[4,4′-bipiperidin]-1-yl)-N-(2-((R)-1-methylpyrrolidin-2-yl)-1H-pyrrolo[3,2-c]pyridin-6-yl)nicotinamide], in assay [1], the “MLLT1% Degradation @ 0.01 μM” value is “A (Category A: A ≥ 75% degradation)”, the “MLLT1% Degradation @ 0.1 μM” value is “A (Category A: A ≥ 75% degradation)” and the “MLLT1% Degradation @ 1 μM” value is “A (Category A: A ≥ 75% degradation)”. In assay [2], the IC50 is at most 0.1 µM.
Consider `CN1CCC[C@@H]1c1cc2cnc(NC(=O)c3ccc(CCCC#Cc4cc(F)cc5c4CN(C4CCC(=O)NC4=O)C5=O)cc3)cc2[nH]1` (stereo partly drawn) [Example 101, 4-(5-(2-(2,6-dioxopiperidin-3-yl)-6-fluoro-1-oxoisoindolin-4-yl)pent-4-yn-1-yl)-N-(2-((R)-1-methylpyrrolidin-2-yl)-1H-pyrrolo[3,2-c]pyridin-6-yl)benzamide], for which, in assay [1], the “MLLT1% Degradation @ 0.01 μM” value was “A (Category A: A ≥ 75% degradation)”, the “MLLT1% Degradation @ 0.1 μM” value is “A (Category A: A ≥ 75% degradation)” and the “MLLT1% Degradation @ 1 μM” value is given as “A (Category A: A ≥ 75% degradation)”. In addition, the IC50 in assay [2] was at most 0.1 µM.
In the case of `CN1CCC[C@@H]1c1cc2cnc(NC(=O)c3ccc(C4CCN(C(=O)CC5CCN(c6cccc7c6CN(C6CCC(=O)NC6=O)C7=O)CC5)CC4)cc3)cc2[nH]1` (stereo partly drawn) [Example 107, 4-(1-(2-(1-(2-(2,6-dioxopiperidin-3-yl)-1-oxoisoindolin-4-yl)piperidin-4-yl)acetyl)piperidin-4-yl)-N-(2-((R)-1-methylpyrrolidin-2-yl)-1H-pyrrolo[3,2-c]pyridin-6-yl)benzamide], in assay [1], the “MLLT1% Degradation @ 0.01 μM” value was “B (Category B: 50% ≤ B < 75% degradation)”, the “MLLT1% Degradation @ 0.1 μM” value is “A (Category A: A ≥ 75% degradation)” and the “MLLT1% Degradation @ 1 μM” value is “A (Category A: A ≥ 75% degradation)”. For the same compound, the 50% inhibitory concentration (IC50) in assay [2] was at most 0.1 µM.
Consider `CN1CCC[C@@H]1c1cc2cnc(NC(=O)c3ccc(OC4CCN(CC5CCN(c6cccc7c6CN(C6CCC(=O)NC6=O)C7=O)CC5)CC4)cc3)cc2[nH]1` (mixture of isomers) [Example 121, 4-((1-((1-(2-(2,6-dioxopiperidin-3-yl)-1-oxoisoindolin-4-yl)piperidin-4-yl)methyl)piperidin-4-yl)oxy)-N-(2-((R)-1-methylpyrrolidin-2-yl)-1H-pyrrolo[3,2-c]pyridin-6-yl)benzamide], for which, in assay [1], the “MLLT1% Degradation @ 0.01 μM” value is given as “A (Category A: A ≥ 75% degradation)”, the “MLLT1% Degradation @ 0.1 μM” value is recorded as “A (Category A: A ≥ 75% degradation)” and the “MLLT1% Degradation @ 1 μM” value is “A (Category A: A ≥ 75% degradation)”. Further, in assay [2], the IC50 is at most 0.1 µM.
`CN1CCC[C@@H]1c1cc2cnc(NC(=O)c3ccc(N4CCN(Cc5ccc(-c6cccc7c6CN(C6CCC(=O)NC6=O)C7=O)cc5)CC4)nc3)cc2[nH]1` (stereo partly drawn) [Example 129, 6-(4-(4-(2-(2,6-dioxopiperidin-3-yl)-1-oxoisoindolin-4-yl)benzyl)piperazin-1-yl)-N-(2-((R)-1-methylpyrrolidin-2-yl)-1H-pyrrolo[3,2-c]pyridin-6-yl)nicotinamide]: in assay [1], the “MLLT1% Degradation @ 0.01 μM” value is reported as “B (Category B: 50% ≤ B < 75% degradation)”, the “MLLT1% Degradation @ 0.1 μM” value is “B (Category B: 50% ≤ B < 75% degradation)” and the “MLLT1% Degradation @ 1 μM” value is reported as “C (Category C: 25% ≤ C < 50% degradation)”. Further, in assay [2], the IC50 was at most 0.1 µM.
For `CN1CCC[C@@H]1c1cc2cnc(NC(=O)c3ccc(OC4CN(CC5CCN(c6ccc7c(c6)C(=O)N(C6CCC(=O)NC6=O)C7=O)CC5)C4)cc3)cc2[nH]1` (stereo partly drawn) [Example 157, 4-((1-((1-(2-(2,6-dioxopiperidin-3-yl)-1,3-dioxoisoindolin-5-yl)piperidin-4-yl)methyl)azetidin-3-yl)oxy)-N-(2-((R)-1-methylpyrrolidin-2-yl)-1H-pyrrolo[3,2-c]pyridin-6-yl)benzamide], in assay [1], the “MLLT1% Degradation @ 0.01 μM” value is “B (Category B: 50% ≤ B < 75% degradation)”, the “MLLT1% Degradation @ 0.1 μM” value is listed as “A (Category A: A ≥ 75% degradation)” and the “MLLT1% Degradation @ 1 μM” value is “A (Category A: A ≥ 75% degradation)”. Besides, the IC50 in assay [2] was at most 0.1 µM.
